Test results reported in patent publication US9260481B2, “Peptide derivatives as antibiotics” (priority 2011, dated 2016).
≈ marks a conversion by molar mass, not a printed value.

Legend:
S. aureus ATCC 25923 = type: cell-based, Staphylococcus aureus; settings: for MIC antibiotic alone: S. aureus ATCC 25923, checkerboard, ~10^4 CFU/mL
Description: (§1) Vancomycin, rifampicin, kanamycin, gentamicin, ampicillin, ciprofloxacin and tetracycline (Sigma-Aldrich) were provided as standard powders by the manufacturers.

P. aeruginosa = assay: Resistance profile of multiresistant clinical isolates; type: cell-based, Pseudomonas aeruginosa; parameters: key: R: resistant; S: sensitive; I: intermediate
S. aureus = assay: as above; type: cell-based, Staphylococcus aureus; parameters: key: R: resistant; S: sensitive; I: intermediate
K. pneumoniae ATCC 43816 = type: cell-based, Klebsiella pneumoniae; settings: for MIC antibiotic alone: K. pneumoniae ATCC 43816, checkerboard, ~10^4 CFU/mL; for Combinations Odilomycin/antibiotic: Odilomycin concentration: Odilomycin A part of the inhibitory combination with the labelled antibiotic
Description: as §1

[1] = test system: S. aureus Smith ATCC 13709; assay: Acute lethal infection in mice; type: in vivo, ICR mice
Experimental: Female ICR mice ordered from Harlan Laboratories (Indianapolis, Ind.) weighing 19-21 g were used in experiments of acute lethal infection. Mice were fully immunocompetent. Infection was induced by inoculating intraperitoneally in mice a bacterial suspension of S. aureus Smith ATCC 13709. The bacterial challenges (ca 5 log10 CFU/mouse) were given suspended in 0.5 mL of 20% hog mucin. […] Mortality was tracked out to 5 days post challenge. Animals that remained surviving at the end of the study were humanely euthanized.

P. aeruginosa ATCC 27853 = assay: Acute lethal infection in mice; type: in vivo, BALB/c mice; settings: P. aeruginosa infection; Tobramycin […] IP
Experimental: Female BALB/c mice ordered from Harlan Laboratories (Indianapolis, Ind.) weighing 19-21 g were used in experiments of acute lethal infection. Mice were fully immunocompetent. Infection was induced by inoculating intraperitoneally in mice a bacterial suspension of P. aeruginosa ATCC 27853. The bacterial challenges (8.6 log10 CFU/mouse) were given suspended in 0.1 mL sterile saline. Treatments were administered once 1 hour after challenge via IV injection (Tobramycin was administered via IP injection immediately after challenge) (Table 13). Mortality was tracked out to 2 days post challenge. Animals that remained surviving at the end of the study were humanely euthanized.

Staphylococcus aureus = assay: microbe, parasite or virus in culture; settings: Staphylococcus aureus
Experimental: The minimal inhibitory concentrations (MIC) were determined according to the Clinical and Laboratory Standards Institute (CLSI) conditions guidelines detailed in Table 7. Assays were performed in triplicate.
Preparation of Inocula. Five to 10 well-isolated colonies were picked and resuspended in 3 ml sterile saline. The inoculum was re-suspended by vigorous shaking on a vortex mixer for 15 s. Turbidity was adjusted to McFarland standard 0.5 ([…]). The inoculum was further diluted in the appropriate media (Table 7) to give a final inoculum in each well of ˜2-8×10^5 CFU/ml.
Addition of Test Article. Stock solutions of Odilomycin A or comparator were diluted in the appropriate media to give a maximum starting concentration of 50 μg/mL in the assay. 50 μL of medium was dispensed into each well in columns two to 12 of a 96 well plate. 100 μL of the appropriate test compound solution (100 μg/mL) was dispensed into each well in column one. In the case of M. catarrhalis, M. haemolytica and P. multocida these values were doubled (a final assay volume of 200 μL was used). […] Columns 11 and 12 served as positive (no drug or test article, inoculum added), and negative (no drug, test article, or inoculum added) growth controls respectively.
Addition of Bacterial Strains. 50 μL of each inoculum suspension was added to the appropriate wells, resulting in a final volume of 100 μL consisting of 50 μL diluted compound or diluents, and 50 μL of inoculum or broth alone.

[2] = P. aeruginosa multiresistant clinical isolate 5618
[3] = P. aeruginosa multiresistant clinical isolate 35170
[4] = P. aeruginosa multiresistant clinical isolate 42162
[5] = P. aeruginosa multiresistant clinical isolate 401681
[6] = P. aeruginosa multiresistant clinical isolate 512232
[7] = S. aureus multiresistant clinical isolate 16666
[8] = S. aureus multiresistant clinical isolate 20364
[9] = S. aureus multiresistant clinical isolate 20681
[10] = S. aureus multiresistant clinical isolate 21840
[11] = S. aureus multiresistant clinical isolate 23305
[12] = mice, S. aureus 5 log10 CFU/mouse IP, Linezolid 12.5 mg/kg PO at 0 hr, n=6

CC1(C)S[C@@H]2[C@H](NC(=O)[C@H](N)c3ccccc3)C(=O)N2[C@H]1C(=O)O [Ampicillin]
MIC antibiotic alone (S. aureus ATCC 25923): 0.15 µg/mL

C[C@H]1[C@H](NC(=O)/C(=N\OC(C)(C)C(=O)O)c2csc(N)n2)C(=O)N1S(=O)(=O)O [Aztreonam]
Susceptibility of isolate to antibacterial (R/S/I) (P. aeruginosa; [2]): S | Susceptibility of isolate to antibacterial (R/S/I) (P. aeruginosa; [3]): R | Susceptibility of isolate to antibacterial (R/S/I) (P. aeruginosa; [4]): I | Susceptibility of isolate to antibacterial (R/S/I) (P. aeruginosa; [5]): I | Susceptibility of isolate to antibacterial (R/S/I) (P. aeruginosa; [6]): R

CO[C@@]1(NC(=O)Cc2cccs2)C(=O)N2C(C(=O)O)=C(COC(N)=O)CS[C@@H]21 [Cefoxitin]
Susceptibility of isolate to antibacterial (R/S/I) (S. aureus; [7]): R | Susceptibility of isolate to antibacterial (R/S/I) (S. aureus; [8]): R | Susceptibility of isolate to antibacterial (R/S/I) (S. aureus; [9]): R | Susceptibility of isolate to antibacterial (R/S/I) (S. aureus; [10]): S | Susceptibility of isolate to antibacterial (R/S/I) (S. aureus; [11]): I

O=C(O)c1cn(C2CC2)c2cc(N3CCNCC3)c(F)cc2c1=O [Ciprofloxacin, ciprofloxacin]
MIC antibiotic alone (S. aureus ATCC 25923): 0.31 µg/mL

CCC[C@@H]1C[C@@H](C(=O)N[C@@H]([C@H]2O[C@H](SC)[C@H](O)[C@@H](O)[C@H]2O)[C@H](C)Cl)N(C)C1 [Clindamycin]
Susceptibility of isolate to antibacterial (R/S/I) (P. aeruginosa; [2]): R | Susceptibility of isolate to antibacterial (R/S/I) (P. aeruginosa; [3]): R | Susceptibility of isolate to antibacterial (R/S/I) (P. aeruginosa; [4]): R | Susceptibility of isolate to antibacterial (R/S/I) (P. aeruginosa; [5]): R | Susceptibility of isolate to antibacterial (R/S/I) (P. aeruginosa; [6]): R | Susceptibility of isolate to antibacterial (R/S/I) (S. aureus; [7]): R | Susceptibility of isolate to antibacterial (R/S/I) (S. aureus; [8]): R | Susceptibility of isolate to antibacterial (R/S/I) (S. aureus; [9]): S | Susceptibility of isolate to antibacterial (R/S/I) (S. aureus; [10]): S | Susceptibility of isolate to antibacterial (R/S/I) (S. aureus; [11]): R

CC[C@H]1OC(=O)[C@H](C)[C@@H](O[C@H]2C[C@@](C)(OC)[C@@H](O)[C@H](C)O2)[C@H](C)[C@@H](O[C@@H]2O[C@H](C)C[C@H](N(C)C)[C@H]2O)[C@](C)(O)C[C@@H](C)C(=O)[C@H](C)[C@@H](O)[C@]1(C)O [Erythromycin]
Susceptibility of isolate to antibacterial (R/S/I) (P. aeruginosa; [2]): R | Susceptibility of isolate to antibacterial (R/S/I) (P. aeruginosa; [3]): R | Susceptibility of isolate to antibacterial (R/S/I) (P. aeruginosa; [4]): R | Susceptibility of isolate to antibacterial (R/S/I) (P. aeruginosa; [5]): R | Susceptibility of isolate to antibacterial (R/S/I) (P. aeruginosa; [6]): R | Susceptibility of isolate to antibacterial (R/S/I) (S. aureus; [7]): R | Susceptibility of isolate to antibacterial (R/S/I) (S. aureus; [8]): R | Susceptibility of isolate to antibacterial (R/S/I) (S. aureus; [9]): S | Susceptibility of isolate to antibacterial (R/S/I) (S. aureus; [10]): S | Susceptibility of isolate to antibacterial (R/S/I) (S. aureus; [11]): R

C[C@@H](O)[C@H]1C(=O)N2C(C(=O)O)=C(SCCN=CN)C[C@H]12 [Imipenem]
Susceptibility of isolate to antibacterial (R/S/I) (P. aeruginosa; [2]): R | Susceptibility of isolate to antibacterial (R/S/I) (P. aeruginosa; [3]): R | Susceptibility of isolate to antibacterial (R/S/I) (P. aeruginosa; [4]): R | Susceptibility of isolate to antibacterial (R/S/I) (P. aeruginosa; [5]): S | Susceptibility of isolate to antibacterial (R/S/I) (P. aeruginosa; [6]): R

NC[C@H]1O[C@H](O[C@H]2[C@H](O)[C@@H](O[C@H]3O[C@H](CO)[C@@H](O)[C@H](N)[C@H]3O)[C@H](N)C[C@@H]2N)[C@H](O)[C@@H](O)[C@@H]1O [Kanamycin]
MIC antibiotic alone (S. aureus ATCC 25923): 0.62 µg/mL | MIC antibiotic alone (K. pneumoniae ATCC 43816): 1.56 µg/mL | Combinations Odilomycin/antibiotic: Odilomycin concentration (K. pneumoniae ATCC 43816; K. pneumoniae ATCC 43816): 6.25 µg/mL | Combinations Odilomycin/antibiotic: antibiotic concentration (K. pneumoniae ATCC 43816; K. pneumoniae ATCC 43816, antibiotic part of the inhibitory combination with Odilomycin A): 0.39 µg/mL

CC(=O)NC[C@H]1CN(c2ccc(N3CCOCC3)c(F)c2)C(=O)O1 [Linezolid, reference compound]
Susceptibility of isolate to antibacterial (R/S/I) (S. aureus; [7]): S | Susceptibility of isolate to antibacterial (R/S/I) (S. aureus; [8]): S | Susceptibility of isolate to antibacterial (R/S/I) (S. aureus; [9]): S | Susceptibility of isolate to antibacterial (R/S/I) (S. aureus; [10]): S | Susceptibility of isolate to antibacterial (R/S/I) (S. aureus; [11]): S | Survival of all treated mice ([1]; S. aureus infection, linezolid 12.5 mg/kg PO): survived up to 5 days after infection | Animal deaths Day 0 [1, 12]: 0 | Animal deaths Day 1 [1, 12]: 0 | Animal deaths Day 2 [1, 12]: 0 | Animal deaths Day 3 [1, 12]: 0 | Animal deaths Day 4 [1, 12]: 0 | Animal deaths Day 5 [1, 12]: 0

CO[C@H]1/C=C/O[C@@]2(C)Oc3c(C)c(O)c4c(O)c(c(/C=N/N5CCN(C)CC5)c(O)c4c3C2=O)NC(=O)/C(C)=C\C=C\[C@H](C)[C@H](O)[C@@H](C)[C@@H](O)[C@@H](C)[C@H](OC(C)=O)[C@@H]1C [Rifampicin]
MIC antibiotic alone (S. aureus ATCC 25923): 0.012 µg/mL

CN(C)[C@@H]1C(O)=C(C(N)=O)C(=O)[C@@]2(O)C(O)=C3C(=O)c4c(O)cccc4[C@@](C)(O)[C@H]3C[C@@H]12 [Tetracycline]
MIC antibiotic alone (S. aureus ATCC 25923): 0.78 µg/mL

NC[C@H]1O[C@H](O[C@H]2[C@H](O)[C@@H](O[C@H]3O[C@H](CO)[C@@H](O)[C@H](N)[C@H]3O)[C@H](N)C[C@@H]2N)[C@H](N)C[C@@H]1O [Tobramycin, reference compound]
Survival of all treated mice (P. aeruginosa ATCC 27853): survived up to 5 days after infection

CN[C@H](CC(C)C)C(=O)N[C@H]1C(=O)N[C@@H](CC(N)=O)C(=O)N[C@H]2C(=O)N[C@H]3C(=O)N[C@H](C(=O)N[C@H](C(=O)O)c4cc(O)cc(O)c4-c4cc3ccc4O)[C@H](O)c3ccc(c(Cl)c3)Oc3cc2cc(c3O[C@@H]2O[C@H](CO)[C@@H](O)[C@H](O)[C@H]2O[C@H]2C[C@](C)(N)[C@H](O)[C@H](C)O2)Oc2ccc(cc2Cl)[C@H]1O [Vancomycin, vancomycin]
MIC (Staphylococcus aureus; ATCC13709): 0.78 µg/mL (≈ 0.538 µM) | MIC (Staphylococcus aureus; ATCC25923): 0.78 µg/mL (≈ 0.538 µM) | MIC (Staphylococcus aureus; ATCCBAA1556 / USA300): 0.78 µg/mL (≈ 0.538 µM) | Susceptibility of isolate to antibacterial (R/S/I) (S. aureus; [7]): S | Susceptibility of isolate to antibacterial (R/S/I) (S. aureus; [8]): S | Susceptibility of isolate to antibacterial (R/S/I) (S. aureus; [9]): S | Susceptibility of isolate to antibacterial (R/S/I) (S. aureus; [10]): S | Susceptibility of isolate to antibacterial (R/S/I) (S. aureus; [11]): S | MIC antibiotic alone (S. aureus ATCC 25923): 0.78 µg/mL

Gentamicin
Susceptibility of isolate to antibacterial (R/S/I) (P. aeruginosa; [2]): R | Susceptibility of isolate to antibacterial (R/S/I) (P. aeruginosa; [3]): R | Susceptibility of isolate to antibacterial (R/S/I) (P. aeruginosa; [4]): R | Susceptibility of isolate to antibacterial (R/S/I) (P. aeruginosa; [5]): R | Susceptibility of isolate to antibacterial (R/S/I) (P. aeruginosa; [6]): R | Susceptibility of isolate to antibacterial (R/S/I) (S. aureus; [7]): R | Susceptibility of isolate to antibacterial (R/S/I) (S. aureus; [8]): S | Susceptibility of isolate to antibacterial (R/S/I) (S. aureus; [9]): S | Susceptibility of isolate to antibacterial (R/S/I) (S. aureus; [10]): S | Susceptibility of isolate to antibacterial (R/S/I) (S. aureus; [11]): R | MIC antibiotic alone (S. aureus ATCC 25923): 0.078 µg/mL | Combinations Odilomycin/antibiotic: Odilomycin concentration (S. aureus ATCC 25923; S. aureus ATCC 25923, Odilomycin A part of the inhibitory combination with the labelled antibiotic): 0.19 µg/mL | Combinations Odilomycin/antibiotic: antibiotic concentration (S. aureus ATCC 25923; S. aureus ATCC 25923, antibiotic part of the inhibitory combination with Odilomycin A): 0.039 µg/mL | Synergy with Odilomycin A (S. aureus ATCC 25923; S. aureus ATCC 25923, labelled antibiotic combined with Odilomycin A): synergistic interaction | MIC antibiotic alone (K. pneumoniae ATCC 43816): 0.39 µg/mL | Combinations Odilomycin/antibiotic: Odilomycin concentration (K. pneumoniae ATCC 43816; K. pneumoniae ATCC 43816): 3.12 µg/mL | Synergy with Odilomycin A (K. pneumoniae ATCC 43816; K. pneumoniae ATCC 43816, labelled antibiotic combined with Odilomycin A): synergistic interaction
